In patent US8754132B2 (The Board of Trustees of the University of Illinois, priority 2010, dated 2014):
Where a name gives a salt, the structure may show the parent alone. Read-outs that look alike come from different tables or passages of the source.

Legend:
[1] = molecular target: CYP2D6 (Homo sapiens, UniProt P10635); test: Recombinant CYP inhibition, CYP2D6; assay type: in vitro ADME; details: recombinant CYP2D6, probe dextromethorphan, substrate dextromethorphan, recombinant enzyme, read-out: % Inhibition at 10 μM, CYP 2D6
[2] = molecular target: CYP2C9 (Homo sapiens, UniProt P11712); test: Recombinant CYP inhibition, CYP2C9; assay type: in vitro ADME; details: recombinant CYP2C9, probe tolbutamide, substrate tolbutamide, recombinant enzyme, read-out: % Inhibition at 10 μM, CYP 2C9
[3] = molecular target: 5-HT(2A) receptor (Homo sapiens, UniProt P28223); test: cell-based; assay type: cell-based; set-up: expressed in transfected cells; details: Table 2, second section; percent of maximal activation by 5-HT; activation at 10 μM for compounds without EC50 value
[4] = Stability in liver microsomes, rat; assay type: in vitro ADME; details: NADPH, 37° C.
Description: Stability in Liver Microsomes. For each sample to be investigated, the following was mixed: microsomes (50 μL, 0.5 mg/mL), MgCl2 solution (50 μL, 50 mM), phosphate buffer (250 μL, 100 mM), water (95 μL), test compound (+)-12 (5 μL, 200 μM). Verapamil was tested as a positive control. The reaction was performed at 37° C. and initiated by the addition of NADPH (50 μL, 10 mM) or, for the negative control, by the addition of water (50 μL). Aliquots of 50 μL were taken form the solution after 0, 15, 30, 45, and 60 minutes and the reaction stopped by the addition of 150 μL cold methanol to the aliquot. The samples were centrifuged (16000 rpm, 10 min). 100 μL supernatant was used for LC-MS-MS investigation. All incubations were performed in duplicate. Separation of the sample components was performed on a Waters ACQUITY UPLC C18 (2.1 mm×50 mm) column, using mobile phase mixtures between 0.1% formic acid in MeCN and 0.1% formic acid in water (elution rate 0.5 mL/min, column temperature 25° C.). […] The in vitro intrinsic clearance (in vitro CLint) was calculated according to: in vitro CLint=(0.693/t1/2)×(volume of incubation (μL)/amount of proteins (mg)).

[5] = molecular target: CYP3A4 (Homo sapiens, UniProt P08684); test: Recombinant CYP inhibition, CYP3A4; assay type: in vitro ADME; details: recombinant enzyme, read-out: % Inhibition at 10 μM, CYP 3A4
[6] = molecular target: T1, human 5-HT(2C) (INI) receptor (Homo sapiens, UniProt P28335); test: Calcium flux assay, stably transfected HEK-293 cells, 5-HT2C; assay type: cell-based; details: Table 2, second section
T1 construct: expressed in transfected cells
T1 sequence (P28335 33-458): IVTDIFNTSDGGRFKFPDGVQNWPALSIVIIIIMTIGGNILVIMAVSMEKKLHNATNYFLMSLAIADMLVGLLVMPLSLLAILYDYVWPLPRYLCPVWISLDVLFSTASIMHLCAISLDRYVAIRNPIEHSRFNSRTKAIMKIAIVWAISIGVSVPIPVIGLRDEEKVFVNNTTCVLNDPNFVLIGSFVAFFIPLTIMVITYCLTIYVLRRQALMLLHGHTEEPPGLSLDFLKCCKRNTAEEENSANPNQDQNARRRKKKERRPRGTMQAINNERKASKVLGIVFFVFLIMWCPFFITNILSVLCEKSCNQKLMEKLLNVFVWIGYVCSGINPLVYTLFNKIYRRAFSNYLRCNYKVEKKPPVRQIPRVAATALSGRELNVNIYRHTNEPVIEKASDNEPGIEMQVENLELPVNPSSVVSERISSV

[7] = molecular target: 5-HT(2B) receptor (Homo sapiens, UniProt P41595); test: Calcium flux assay, stably transfected HEK-293 cells, 5-HT2B; assay type: cell-based; set-up: expressed in transfected cells; details: Table 2, second section; percent of maximal activation by 5-HT; activation at 10 μM for compounds without EC50 value
[8] = Stability in liver microsomes, human; assay type: in vitro ADME; details: NADPH, 37° C.
[9] = test system: PCP-disrupted PPI in mice; test: Prepulse inhibition (PPI) animal study, PCP-disrupted PPI; details: PCP 6 mg/kg i.p.

Sequence of CYP3A4 (P08684 whole entry): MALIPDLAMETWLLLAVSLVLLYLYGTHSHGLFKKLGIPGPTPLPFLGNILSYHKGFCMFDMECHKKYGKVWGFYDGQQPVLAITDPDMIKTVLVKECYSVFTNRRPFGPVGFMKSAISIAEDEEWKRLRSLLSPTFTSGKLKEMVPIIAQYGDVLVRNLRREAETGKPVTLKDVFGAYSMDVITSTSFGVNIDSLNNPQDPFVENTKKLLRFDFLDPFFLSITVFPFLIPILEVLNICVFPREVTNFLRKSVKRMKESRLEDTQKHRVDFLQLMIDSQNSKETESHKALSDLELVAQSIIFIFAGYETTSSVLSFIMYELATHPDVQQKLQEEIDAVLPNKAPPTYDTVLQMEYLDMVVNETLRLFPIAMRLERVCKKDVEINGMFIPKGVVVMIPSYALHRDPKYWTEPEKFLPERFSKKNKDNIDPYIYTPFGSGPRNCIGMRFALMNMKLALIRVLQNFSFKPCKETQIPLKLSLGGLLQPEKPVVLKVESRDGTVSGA
Sequence of CYP2D6 (P10635 whole entry): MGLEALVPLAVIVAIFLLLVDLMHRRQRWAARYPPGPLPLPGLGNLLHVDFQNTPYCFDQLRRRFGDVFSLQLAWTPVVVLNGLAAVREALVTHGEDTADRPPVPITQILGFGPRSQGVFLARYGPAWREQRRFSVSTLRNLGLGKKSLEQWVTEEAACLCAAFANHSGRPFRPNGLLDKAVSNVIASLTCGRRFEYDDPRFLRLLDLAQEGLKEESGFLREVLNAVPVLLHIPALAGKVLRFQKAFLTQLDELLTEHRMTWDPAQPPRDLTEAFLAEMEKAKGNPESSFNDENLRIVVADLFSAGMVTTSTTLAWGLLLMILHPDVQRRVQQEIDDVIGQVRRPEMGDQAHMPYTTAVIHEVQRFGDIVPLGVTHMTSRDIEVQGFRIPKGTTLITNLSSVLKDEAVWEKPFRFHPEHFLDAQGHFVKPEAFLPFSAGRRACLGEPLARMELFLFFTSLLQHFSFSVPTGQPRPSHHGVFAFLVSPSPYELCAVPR
Sequence of 5-HT(2B) receptor (P41595 whole entry): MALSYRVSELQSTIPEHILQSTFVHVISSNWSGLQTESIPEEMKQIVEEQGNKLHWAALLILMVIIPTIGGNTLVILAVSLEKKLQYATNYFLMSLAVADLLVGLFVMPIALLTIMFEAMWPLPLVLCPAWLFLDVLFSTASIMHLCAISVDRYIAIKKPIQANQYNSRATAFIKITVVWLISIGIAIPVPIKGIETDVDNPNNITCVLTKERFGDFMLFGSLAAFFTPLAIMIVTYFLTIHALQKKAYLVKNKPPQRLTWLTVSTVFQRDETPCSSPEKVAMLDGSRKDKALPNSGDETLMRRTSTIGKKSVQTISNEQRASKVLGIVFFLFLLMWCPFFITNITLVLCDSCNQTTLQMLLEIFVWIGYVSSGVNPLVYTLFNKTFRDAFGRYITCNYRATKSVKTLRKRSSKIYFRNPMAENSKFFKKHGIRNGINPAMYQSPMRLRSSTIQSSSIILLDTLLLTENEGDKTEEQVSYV
Sequence of 5-HT(2A) receptor (P28223 whole entry): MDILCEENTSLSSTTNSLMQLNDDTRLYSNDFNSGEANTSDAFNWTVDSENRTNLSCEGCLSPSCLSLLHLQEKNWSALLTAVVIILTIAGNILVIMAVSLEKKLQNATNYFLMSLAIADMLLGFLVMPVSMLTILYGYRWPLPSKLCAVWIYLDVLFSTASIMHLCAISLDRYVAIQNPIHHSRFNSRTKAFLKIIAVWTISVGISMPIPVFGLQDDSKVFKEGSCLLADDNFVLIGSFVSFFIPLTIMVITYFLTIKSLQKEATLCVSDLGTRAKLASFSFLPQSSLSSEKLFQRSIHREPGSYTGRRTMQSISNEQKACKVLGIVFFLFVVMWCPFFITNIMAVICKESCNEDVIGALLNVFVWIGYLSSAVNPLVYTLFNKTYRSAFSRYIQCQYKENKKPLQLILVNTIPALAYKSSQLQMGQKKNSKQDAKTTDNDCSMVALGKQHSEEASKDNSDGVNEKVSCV
Sequence of CYP2C9 (P11712 whole entry): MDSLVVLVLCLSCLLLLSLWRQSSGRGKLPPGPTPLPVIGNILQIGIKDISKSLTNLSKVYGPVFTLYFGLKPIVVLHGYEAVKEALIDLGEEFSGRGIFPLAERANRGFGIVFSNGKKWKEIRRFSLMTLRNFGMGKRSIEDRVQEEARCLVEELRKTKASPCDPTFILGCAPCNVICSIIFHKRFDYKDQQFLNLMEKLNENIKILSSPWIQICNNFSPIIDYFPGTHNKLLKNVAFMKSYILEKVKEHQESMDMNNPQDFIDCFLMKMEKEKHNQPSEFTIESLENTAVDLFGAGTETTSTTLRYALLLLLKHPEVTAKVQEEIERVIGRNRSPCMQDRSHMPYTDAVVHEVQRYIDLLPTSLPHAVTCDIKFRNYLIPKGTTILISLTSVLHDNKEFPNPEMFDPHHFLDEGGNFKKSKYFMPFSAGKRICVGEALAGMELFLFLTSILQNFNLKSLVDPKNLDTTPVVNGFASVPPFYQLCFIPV

SMILES: NC[C@H]1C[C@@H]1c1cc(F)ccc1OCC1CC1 [(+)-12, (+)-trans-(S,S)-[2-(2-Cyclopropylmethyloxy-5-fluorophenyl)cyclopropyl]methylamine Hydrochloride]
- inhibition at 20 min, 10 µM [1]: 27%
- inhibition at 20 min, 10 µM [2]: 19.6%
- 5-HT2A % Max ± SEM [3]: 29% ±
- Microsomal stability (% remaining), rat [4]: 66.03%
- inhibition at 5 min, 10 µM ([5]; recombinant CYP3A4, probe midazolam, substrate midazolam): 21.7%
- inhibition at 5 min, 10 µM ([5]; recombinant CYP3A4, probe testosterone, substrate testosterone): 25.1%
- Selectivity 2A/2C ([6]; EC50 ratio): 42
- Selectivity 2B/2C ([6]; EC50 ratio): 14
- Emax 2C/2A ([6]; Emax ratio): 2.5
- Emax 2C/2B ([6]; Emax ratio): 3.4
- 5-HT2C % Max ± SEM ([6]; percent of maximal activation by 5-HT): 71% ±
- 5-HT2B % Max ± SEM [7]: 21% ±
- Microsomal stability (% remaining), human [8]: 90.50%
- normalization of PCP-disrupted PPI ([9]; 5 mg/kg dose level): still effective
- normalization of PCP-disrupted PPI ([9]; 10 mg/kg): able to normalize PCP-disrupted PPI
